# Assay results published in patent US7655665B2, “Nitromethylene derivatives and their use” (East China University of Science and Technology, priority 2004, dated 2010).
# Columns and labels:
# Aphis craccivoral = assay: Insecticidal activity against Aphis craccivoral by immersing (dipping aphids on bean sprout); format: in vivo; conditions: 23° C.
# Description: (§1) Test on the insecticidal activity of Compound Nos. 1-227
# Aphis, which belongs to Homoptera and has a piercing-sucking mouthpart, is a common insect for agricultural plant. Aphis craccivoral was tested by the way of immersing.
# Test method: exactly weighed various samples were independently added to N,N-dimethylformamide to form a 10 g/L stock solution. The mixture was diluted with 0.2 mL/L aqueous Triton X-100 solution to a concentration of 500 ug/mL. After stably sucking on bean sprout, the adult aphis without wings together with bean sprout was dipped into 500 ug/mL dilution, taken out after 5 seconds, and the excess dilution was sucked out with bibulous paper and the adult aphis without wings was incubated in clean vessel at a constant temperature of 23° C. Each concentration was repeated for 3 times and the control group contained 0.2 mL/L aqueous Triton X-100 solution. The number of killed aphis was counted after 24 hours to calculate the mortality.
# Nilaparvata lugens = assay: Insecticidal activity against Nilaparvata lugens (planthopper) by spraying; format: in vivo; conditions: 500 ppm; for mortality (%) (500 ppm) Nilaparvata lugens: spraying 2 ml, counted after 24 hours; for mortality (%) (500 ppm) Nilaparvata-lugens: spraying 2 ml per tumbler, killed counted after 24 hours
# Description: as §1
# Planthopper, which belongs to Homoptera and has a piercing-sucking mouthpart, is a common insect for agricultural plant. Nilaparvata lugens was tested by the way of spraying.
# Test method: the test compound was exactly formulated into a solution having a certain concentration and clean water was used as a blank control. Each process was repeated for 3 tumblers (3 times). 2 ml of solution was sprayed uniformly to each tumbler by a mini manual sprayer. 10 Nilaparvata lugens were introduced to every sink 6 hours before spraying. Three series of experiments were conducted. The number of killed Nilaparvata lugens was counted after 24 hours to calculate the mortality.
# [1] = 500 ppm, immersing (dipped 5 seconds), counted after 24 hours
# [2] = 500 ppm (500 ug/mL dilution), dipped 5 seconds, killed aphis counted after 24 hours
SMILES,mortality (%) (500 ppm) Aphis (Aphis craccivoral; [1]),mortality (%) (500 ppm) Nilaparvata lugens (Nilaparvata lugens),mortality (%) (500 ppm) Aphis (Aphis craccivoral; [2]),mortality (%) (500 ppm) Nilaparvata-lugens (Nilaparvata lugens)
O=C(OC1CCC([N+](=O)[O-])=C2N(Cc3ccc(Cl)nc3)CCN21)c1cccnc1 (stereo not drawn) [Compound 120],1%,5%,,
O=C(OC1CCC([N+](=O)[O-])=C2N(Cc3ccc(Cl)nc3)CCN21)c1ccccn1 (stereo not drawn) [Compound 121],0%,8%,,
O=C(OC1CCC([N+](=O)[O-])=C2N(Cc3ccc(Cl)nc3)CCN21)c1ccccc1 (stereo not drawn) [Compound 122],56%,23%,,
O=C(OC1CCC([N+](=O)[O-])=C2N(Cc3ccc(Cl)nc3)CCN21)c1ccc(F)cc1 (stereo not drawn) [Compound 123],56%,100%,,
O=C(OC1CCC([N+](=O)[O-])=C2N(Cc3ccc(Cl)nc3)CCN21)c1ccc(Cl)cc1 (stereo not drawn) [Compound 124],22%,0%,,
O=C(OC1CCC([N+](=O)[O-])=C2N(Cc3ccc(Cl)nc3)CCN21)c1cc(F)c(Cl)cc1Cl (stereo not drawn) [Compound 125],67%,92%,,
O=C(OC1CCC([N+](=O)[O-])=C2N(Cc3ccc(Cl)nc3)CCN21)c1ccc(C(F)(F)F)cc1 (stereo not drawn) [Compound 126],93%,100%,,
O=C(OC1CCC([N+](=O)[O-])=C2N(Cc3ccc(Cl)nc3)CCN21)c1cc(F)c(F)cc1F (stereo not drawn) [Compound 127],45%,78%,,
O=C(OC1CCC([N+](=O)[O-])=C2N(Cc3ccc(Cl)nc3)CCN21)c1cc(F)c(F)c(F)c1F (stereo not drawn) [Compound 128],0%,21%,,
O=C(OC1CCC([N+](=O)[O-])=C2N(Cc3ccc(Cl)nc3)CCN21)c1ccccc1F (stereo not drawn) [Compound 129],0%,34%,,
O=C(OC1CCC([N+](=O)[O-])=C2N(Cc3ccc(Cl)nc3)CCN21)c1cc(F)c(F)c([N+](=O)[O-])c1F (stereo not drawn) [Compound 130],23%,67%,,
O=C(OC1CCC([N+](=O)[O-])=C2N(Cc3ccc(Cl)nc3)CCN21)c1ccc(Cl)c(Cl)c1 (stereo not drawn) [Compound 131],3%,0%,,
CSC1CCC([N+](=O)[O-])=C2N(Cc3ccc(Cl)nc3)CCN21 (stereo not drawn) [Compound 132],100%,100%,,
CCSC1CCC([N+](=O)[O-])=C2N(Cc3ccc(Cl)nc3)CCN21 (stereo not drawn) [Compound 133],100%,100%,,
O=[N+]([O-])C1=C2N(Cc3ccc(Cl)nc3)CCN2C(SCC(F)(F)F)CC1 (stereo not drawn) [Compound 135],98%,100%,,
CCCSC1CCC([N+](=O)[O-])=C2N(Cc3ccc(Cl)nc3)CCN21 (stereo not drawn) [Compound 136],100%,100%,,
CC(C)SC1CCC([N+](=O)[O-])=C2N(Cc3ccc(Cl)nc3)CCN21 (stereo not drawn) [Compound 137],89%,100%,,
O=[N+]([O-])C1=C2N(Cc3ccc(Cl)nc3)CCN2C(SC(C(F)(F)F)C(F)(F)F)CC1 (stereo not drawn) [Compound 138],45%,98%,,
CCCCSC1CCC([N+](=O)[O-])=C2N(Cc3ccc(Cl)nc3)CCN21 (stereo not drawn) [Compound 139],34%,78%,,
CC(C)CSC1CCC([N+](=O)[O-])=C2N(Cc3ccc(Cl)nc3)CCN21 (stereo not drawn) [Compound 140],67%,78%,,
CCC(C)SC1CCC([N+](=O)[O-])=C2N(Cc3ccc(Cl)nc3)CCN21 (stereo not drawn) [Compound 141],56%,89%,,
CC(C)(C)SC1CCC([N+](=O)[O-])=C2N(Cc3ccc(Cl)nc3)CCN21 (stereo not drawn) [Compound 142],67%,88%,,
CCCCCSC1CCC([N+](=O)[O-])=C2N(Cc3ccc(Cl)nc3)CCN21 (stereo not drawn) [Compound 143],23%,34%,,
CCC(C)SC1CCC([N+](=O)[O-])=C2N(Cc3ccc(Cl)nc3)CCN21 (stereo not drawn) [Compound 144],12%,56%,,

SMILES,mortality (%) (500 ppm) Aphis (Aphis craccivoral; [1]),mortality (%) (500 ppm) Nilaparvata lugens (Nilaparvata lugens),mortality (%) (500 ppm) Aphis (Aphis craccivoral; [2]),mortality (%) (500 ppm) Nilaparvata-lugens (Nilaparvata lugens)
CC(C)CCSC1CCC([N+](=O)[O-])=C2N(Cc3ccc(Cl)nc3)CCN21 (stereo not drawn) [Compound 145],67%,78%,,
CCCC(C)SC1CCC([N+](=O)[O-])=C2N(Cc3ccc(Cl)nc3)CCN21 (stereo not drawn) [Compound 146],35%,97%,,
CC(C)(C)CSC1CCC([N+](=O)[O-])=C2N(Cc3ccc(Cl)nc3)CCN21 (stereo not drawn) [Compound 147],56%,99%,,
COCCSC1CCC([N+](=O)[O-])=C2N(Cc3ccc(Cl)nc3)CCN21 (stereo not drawn) [Compound 148],67%,89%,,
CCOCCSC1CCC([N+](=O)[O-])=C2N(Cc3ccc(Cl)nc3)CCN21 (stereo not drawn) [Compound 149],98%,100%,,
CC(=O)OC1CCC([N+](=O)[O-])=C2N(Cc3cnc(Cl)s3)CCN21 (stereo not drawn) [Compound 152],3%,0%,,
CCC(=O)OC1CCC([N+](=O)[O-])=C2N(Cc3cnc(Cl)s3)CCN21 (stereo not drawn) [Compound 153],29%,38%,,
O=C(OC1CCC([N+](=O)[O-])=C2N(Cc3cnc(Cl)s3)CCN21)C(Cl)(Cl)Cl (stereo not drawn) [Compound 154],93%,100%,,
O=C(OC1CCC([N+](=O)[O-])=C2N(Cc3cnc(Cl)s3)CCN21)C(F)(F)F (stereo not drawn) [Compound 155],48%,90%,,
CS(=O)(=O)OC1CCC([N+](=O)[O-])=C2N(Cc3cnc(Cl)s3)CCN21 (stereo not drawn) [Compound 156],78%,92%,,
O=[N+]([O-])C1=C2N(Cc3cnc(Cl)s3)CCN2C(OS(=O)(=O)C(F)(F)F)CC1 (stereo not drawn) [Compound 157],56%,100%,,
O=[N+]([O-])C1=C2N(Cc3cnc(Cl)s3)CCN2C(OS(=O)(=O)c2ccccc2)CC1 (stereo not drawn) [Compound 158],6%,7%,,
O=C(OC1CCC([N+](=O)[O-])=C2N(Cc3cnc(Cl)s3)CCN21)c1cccnc1 (stereo not drawn) [Compound 159],0%,8%,,
O=C(OC1CCC([N+](=O)[O-])=C2N(Cc3cnc(Cl)s3)CCN21)c1ccccn1 (stereo not drawn) [Compound 160],4%,8%,,
O=C(OC1CCC([N+](=O)[O-])=C2N(Cc3cnc(Cl)s3)CCN21)c1ccccc1 (stereo not drawn) [Compound 161],3%,5%,,
O=C(OC1CCC([N+](=O)[O-])=C2N(Cc3cnc(Cl)s3)CCN21)c1cc(F)c(Cl)cc1Cl (stereo not drawn) [Compound 164],59%,78%,,
O=C(OC1CCC([N+](=O)[O-])=C2N(Cc3cnc(Cl)s3)CCN21)c1ccc(C(F)(F)F)cc1 (stereo not drawn) [Compound 165],,,90%,100%
O=C(OC1CCC([N+](=O)[O-])=C2N(Cc3cnc(Cl)s3)CCN21)c1cc(F)c(F)cc1F (stereo not drawn) [Compound 166],,,0%,45%
O=C(OC1CCC([N+](=O)[O-])=C2N(Cc3cnc(Cl)s3)CCN21)c1cc(F)c(F)c(F)c1F (stereo not drawn) [Compound 167],,,12%,4%
O=C(OC1CCC([N+](=O)[O-])=C2N(Cc3cnc(Cl)s3)CCN21)c1ccccc1F (stereo not drawn) [Compound 168],,,56%,100%
O=C(OC1CCC([N+](=O)[O-])=C2N(Cc3cnc(Cl)s3)CCN21)c1cc(F)c(F)c([N+](=O)[O-])c1F (stereo not drawn) [Compound 169],,,2%,13%
O=C(OC1CCC([N+](=O)[O-])=C2N(Cc3cnc(Cl)s3)CCN21)c1ccc(Cl)c(Cl)c1 (stereo not drawn) [Compound 170],,,2%,0%
CSC1CCC([N+](=O)[O-])=C2N(Cc3cnc(Cl)s3)CCN21 (stereo not drawn) [Compound 171],,,97%,100%
CCSC1CCC([N+](=O)[O-])=C2N(Cc3cnc(Cl)s3)CCN21 (stereo not drawn) [Compound 172],,,100%,100%
